Experimental data from publication PMC4786259 (PLoS ONE, 2016).

Test system: WT and dopamine transporter knockout (DAT-KO) mice
Assay: Prepulse inhibition in WT and DAT-KO mice
Settings: 2 mg/kg clozapine i.p.

For `CN1CCN(C2=Nc3cc(Cl)ccc3Nc3ccccc32)CC1` [clozapine], the “PPI in DAT-KO mice” value was “restored” and the “PPI in WT mice” value was “not affected”.
